SMILES strings stand for the structures.

Experiment [1] concerns imiquimod (IMQ)-induced lupus model. Briefly: imiquimod (IMQ)-induced lupus (SLE) mouse model. The experiment is classed as in vivo, Female BALB/C mice. Conditions: for spleen index (organ weight/body weight x 100%): Fig. 1b; for follicle diameter / number of splenic follicles: H&E stained spleen sections, Fig. 2b-2c; for anti-dsDNA titers: SLE mouse serum, ELISA (IgG specific), Fig. 3. As to the method: The goal of this Example was to investigate the effects of compound 2 in the imiquimod (IMQ)-induced lupus model, which is widely used as one of the induced SLE models.
Female BALB/C mice weighing 18-20 g were supplied by Saeron Bio Co., Ltd. (Korea) and acclimatized for 7 days. The animals were housed in separate cages with free access to laboratory feed and water. During the experiment, the animals were maintained at 23±3°C and 50±10% relative humidity with a 12-hour light-dark cycle. The animals were treated according to a protocol approved by the Animal Ethics Committee of GNT Pharmaceuticals. The mice were randomly divided into four groups: a normal group (n=6), a control SLE group (vehicle group, n=8), an IMQ+Compound 2 group (Compound 2 treatment group, n=4), and an IMQ+N-acetylcysteine group (NAC treatment group, n=8). All IMQ treatment groups were administered 5% imiquimod cream (Aldara Cream, Dong-A Pharmaceutical Co., Ltd.) topically to the right ear at a dose of 1.25 mg daily every other day for 4 weeks. Compound 2 (5 mg/kg, twice daily) was orally administered to the IMQ+Compound 2 group for 4 weeks, followed by concurrent IMQ treatment. N-acetyl Cysteine (150 mg/kg, once daily, adjusted to pH 7.5-8.0) was administered intraperitoneally to the IMQ+NAC group for 4 weeks along with IMQ treatment.
Mice were anesthetized with pentobarbital at the end of the experiment. Blood was collected through cardiac blood sampling. Within 30 minutes of collection, serum was separated from whole blood using EDTA by centrifugation at 12,000 g for 10 minutes. The extracted spleen was weighed, then the tissue was heated to 60°C, washed with xylene, and immersed in ethanol at gradient concentrations. The sections were H&E stained (BBC Biochemical, Washington State Mount Vernon) and then imaging was performed under a microscope. Observation was conducted through five fields of view at 10x magnification, and the number of spleen alba pulps (follicles) was counted. In addition, the diameter of the spleen alba pulp was observed using a micrometer. The diameter of the alba pulp was measured vertically and horizontally, and the average was calculated. Using a commercially available enzyme-linked immunosorbent assay (ELISA) kit (LBIS Mouse anti-dsDNA ELISA, Fujifilm Wako Shibayagi Co., Ltd., Richmond, Virginia, USA) serum anti-dsDNA (IgG specific) concentration was analyzed.

Experiment [2] concerns imiquimod (IMQ)-induced psoriasis model. Kind of experiment: imiquimod (IMQ)-induced psoriasis mouse model. In kind it is in vivo, Male BALB/C mice. The text has this: The goal of this Example was to investigate the effect of compound 2 in the imiquimod (IMQ)-induced psoriasis model, which is widely used as one of the induced psoriasis models.
For the experiment, psoriasis was induced using imiquimod (IMQ). The IMQ-induced psoriasis mouse model is one of the most widely used models for studying psoriasis. IMQ is a Toll-like receptor-7/8 (TLR-7/8) agonist used to treat actinic keratosis and basal cell carcinoma. It is known that topical application of IMQ cream to the skin of mice recruits immune cells and activates macrophages, monocytes, and dendritic cells to secrete inflammatory cytokines. The IMQ-induced psoriasis mouse model is known to be very similar to human psoriasis in terms of skin erythema, keratinization, epidermal changes (acanthosis), and inflammatory infiltration consisting of T cells, neutrophils, and dendritic cells.
Male BALB/C mice weighing 20-22 g were supplied by Saeron Bio Co., Ltd. (Korea) and acclimatized for 7 days. The animals were housed in separate cages with free access to laboratory feed and water. During the experiment, the animals were maintained at 23±3°C and 50±10% relative humidity with a 12-hour light-dark cycle. The animals were treated according to a protocol approved by the Animal Ethics Committee of GNT Pharmaceuticals. The mice were randomly divided into three groups: a normal group (n=5), a control psoriasis group (Vehicle group, n=8), and an IMQ+Compound 2 group (compound 2 treatment group, n=9). All IMQ treatment groups were administered 5% imiquimod cream (Aldara Cream, Dong-A Pharmaceutical Co., Ltd.) topically to shaved backs at a dose of 62.5 mg per day for 6 days. Compound 2 (5 mg/kg, twice daily) was orally administered to the IMQ+Compound 2 group for 6 days, followed by IMQ treatment.
To evaluate the anti-psoriatic effects of compound 2, the severity of psoriasis was monitored using an IMQ-induced psoriasis mouse model. The Psoriasis Skin PASI score is used to assess the severity of skin lesions in mice.
After confirming the therapeutic effect of compound 2 on psoriasis-like symptoms in mice, histological analysis was performed to identify histological changes occurring in psoriatic skin and methods of improvement.
Mice were anesthetized with pentobarbital at the end of the experiment. Blood was collected by cardiac blood sampling. Within 30 minutes of collection, serum was separated from whole blood using EDTA by centrifugation at 12,000 g for 10 minutes. The weight of the extracted spleen was measured.

Experiment [3] concerns EAE mouse model. Briefly: experimental autoimmune encephalomyelitis (EAE) mouse model. The experiment is classed as in vivo, female C57BL/6 mice. An excerpt:
Multiple sclerosis (MS) is a neurological autoimmune disease in which the body's immune system attacks the cells of myelin, the protective sheath surrounding the […] of the brain and spinal cord. Until now, EAE has been well known as a preclinical model associated with multiple sclerosis. Therefore, an EAE mouse model was used to confirm the effects of compound 2 on autoimmune diseases.
The EAE mouse model was induced in 6-week-old female C57BL/6 mice. Mice were divided into three groups: 6 mice were placed in the normal group, and 8 mice were placed in the control EAE group (vehicle group) and the EAE + Compound 2 group (Compound 2 treatment group), respectively. In the mice, 200 µg of oligodendrocyte glycoprotein peptide myelin oligodendrocyte glycoprotein 35-55 (MOG35-55, Prospecbio , Israel) emulsified in 400 µg of complete Freund's adjuvant (CFA, Sigma, USA) was inoculated. The emulsion was injected into both sides of each mouse. Subsequently, 200 ng of pertussis toxin (Sigma, USA) was injected intraperitoneally on days 0 and 2. Compound 2 was injected intraperitoneally at a dose of 3.3 mg/kg every 24 hours for 7 days starting on day 9. In the control EAE group, PBS was injected intraperitoneally. Clinical signs associated with EAE were monitored daily and rated on a scale of 0 to 5: Grade 0, no apparent clinical symptoms; Grade 0.5, partial tail paralysis; Grade 1, tail paralysis or waddling gait; Grade 1.5, partial tail paralysis and waddling gait; Grade 2, tail paralysis and waddling gait; Grade 2.5, partial quadriplegia; Grade 3, unilateral limb paralysis; Grade 3.5, unilateral paralysis and partial paralysis of the other limb; Grade 4, bilateral paralysis; Grade 4.5, coma; Grade 5, death.
On day 25 after EAE induction, mice were euthanized by exposure to CO2, and spleens were extracted. RNA expression in the spleen was analyzed using Applied Biosystems™QuantStudio 5 qPCR system (Thermofisher, USA) with AMPIGENE qPCR Green Mix Hyrox (Thermofisher, USA), including […] forward and reverse primers (Bionics Korea) and SYBR green dye (Enzo Life Sciences, Farmingdale , NY, USA). The expression levels of each gene were standardized to glyceraldehyde 3-phosphate dehydrogenase (GAPDH) and compared to the expression levels of the normal or control EAE groups. To evaluate the effect of compound 2 on Treg, mouse splenocyte preparations were stained with the Treg detection kit (CD4/CD25/FoxP3) (Miltenyi Biotech, Germany) according to the manufacturer's instructions, and the Treg population was evaluated using flow cytometry. The data was analyzed using FlowJo™ 10.8.1 software.

Experiment [4] has as its target T1, microsomal prostaglandin E synthase-1 (mPGES-1) (Homo sapiens, UniProt O14684).
T1 sequence (O14684 1-152): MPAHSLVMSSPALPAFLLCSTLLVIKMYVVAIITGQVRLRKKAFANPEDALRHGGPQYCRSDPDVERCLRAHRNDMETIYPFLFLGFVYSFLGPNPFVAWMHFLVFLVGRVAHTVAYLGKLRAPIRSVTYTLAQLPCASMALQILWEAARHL
Conditions: previous studies; cited from earlier work.

The test system of experiment [5] is mouse model of amyotrophic lateral sclerosis. Conditions: previous studies, ALS mouse model; cited from earlier work.
Setting [6] is: SLE mice, 4 weeks, compound 2 5 mg/kg twice daily oral, NAC 150 mg/kg once daily i.p., versus control SLE group.
Setting [7] is: Masson's trichrome staining, Fig. 10.
The mark [8] stands for this setting: spleen RNA, qPCR, versus control EAE group, Fig. 6.

With `CC(=O)N[C@@H](CS)C(=O)O` [NAC, N-acetylcysteine, reference compound], in experiment [1] (setting [6]), the “spleen index (organ weight/body weight x 100%)” value is recorded as “no significant difference”. In experiment [1] (SLE mice), the follicle diameter result is “did not show a beneficial effect” and the “number of splenic follicles” value was “did not show a beneficial effect”. In experiment [1], the anti-dsDNA titers result is listed as “no effect”.
For `O=C(O)c1cc(NCCc2ccc(C(F)(F)F)cc2)ccc1O` [compound 2, 2-hydroxy-5-[2-(4-trifluoromethyl-phenyl)-ethylamino]-benzoic acid], the “epidermal thickening (acanthosis) and elongation of the rate ridges” value in experiment [2] (H&E histopathology of skin lesions, versus IMQ alone, Fig. 9a) is reported as “significant inhibition”. Besides, in experiment [2] (H&E-stained dorsal skin, Fig. 9b), the epidermal thickness entry is listed as “significantly reduced”. The spleen index result in experiment [2] (IMQ-induced psoriasis mice, versus control psoriasis group, Fig. 11b) is given as “decreased”. For the same compound, the “spleen size and weight” value in experiment [2] (IMQ-induced psoriasis mice, Fig. 11a) is recorded as “decreased”. In experiment [2] (setting [7]), the “collagen pattern in the dermis” value is recorded as “much more compressed collagen pattern” and the psoriasis-like inflammation entry was “potently inhibited”. Also, the PASI scores entry in experiment [2] (psoriasis mice, compound 2 5 mg/kg twice daily oral for 6 days, versus control psoriasis group, Figs. 8b-8e) is listed as “significantly lower score than the control psoriasis group”. Besides, the onset date entry in experiment [3] (EAE mice, compared with control EAE group) is given as “similar”. Further, the Clinical signs entry in experiment [3] (EAE mice, compound 2 3.3 mg/kg i.p. every 24 hours for 7 days from day 9, scale 0 to 5, Fig. 4) was “effectively alleviated”. For the same compound, in experiment [3] (setting [8]), the CD206 expression result is on record as “significantly increased”, the “expression of IFN-γ” value was “lower”, the “expression of TNF-α” value was “lower” and the iNOS expression result was “significantly lower”. The “number of Treg cells (CD4+CD25+Foxp3+)” value in experiment [3] (splenocytes, flow cytometry, versus control EAE group, Fig. 7) is recorded as “significantly higher”. For the same compound, the spleen size result in experiment [1] (SLE mice, 4 weeks, compound 2 5 mg/kg twice daily oral, NAC 150 mg/kg once daily i.p., versus control SLE group, Fig. 1a) is listed as “smaller than that of the control SLE group”. Besides, the “spleen index (organ weight/body weight x 100%)” value in experiment [1] (setting [6]) is listed as “significantly lower than that of the control SLE group”. In experiment [1] (SLE mice), the follicle diameter entry is “significantly decreased” and the “number of splenic follicles” value is “significantly increased”. Besides, the anti-dsDNA titers result in experiment [1] is recorded as “significantly reduced”. Also, the mPGES-1 inhibition entry in experiment [4] is reported as “inhibitor at nanomolar concentrations”. The “neuronal death, motor function and lifespan” value in experiment [5] was “block neuronal death, lateral sclerosis, and autophagocytosis formation, as well as activate motor function and increase lifespan”.

Source of the values: patent EP4817614A1, “COMPOSITION AND METHOD FOR TREATING AUTOIMMUNE DISEASES” (GNT Pharma Co., Ltd., priority 2023, dated 2025).
